Broadly, the Ki is a dissociation constant, usually derived from enzyme kinetics or from competition with a known ligand. Lower therefore signals tighter binding.

For 46 compounds, Ki results are on record in US10208021B2, “Substituted tetrahydroisoquinoline compounds as factor XIa inhibitors” (BRISTOL-MYERS SQUIBB COMPANY, priority 2011, dated 2019).

Chain of purified human Factor XIa (P03951 388-625): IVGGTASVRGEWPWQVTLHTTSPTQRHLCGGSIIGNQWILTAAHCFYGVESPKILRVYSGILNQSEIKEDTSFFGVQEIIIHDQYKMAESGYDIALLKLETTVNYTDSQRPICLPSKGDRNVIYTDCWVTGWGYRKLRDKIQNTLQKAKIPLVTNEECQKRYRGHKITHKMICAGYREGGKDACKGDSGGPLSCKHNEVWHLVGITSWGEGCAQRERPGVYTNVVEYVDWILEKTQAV
Chain of purified human Factor XIa (P03951 19-387 partner): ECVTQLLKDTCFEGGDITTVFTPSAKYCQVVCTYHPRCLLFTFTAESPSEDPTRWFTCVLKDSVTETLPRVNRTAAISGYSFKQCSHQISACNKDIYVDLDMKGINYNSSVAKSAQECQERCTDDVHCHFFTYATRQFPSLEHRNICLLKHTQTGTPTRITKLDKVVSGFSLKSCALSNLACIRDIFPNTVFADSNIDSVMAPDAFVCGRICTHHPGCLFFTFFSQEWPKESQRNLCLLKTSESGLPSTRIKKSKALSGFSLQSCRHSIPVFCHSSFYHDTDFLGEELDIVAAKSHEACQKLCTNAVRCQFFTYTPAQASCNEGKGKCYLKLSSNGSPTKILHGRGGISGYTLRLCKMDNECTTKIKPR

One assay concerns the target purified human Factor XIa (Homo sapiens (Human), UniProt P03951). Description: Factor XIa chromogenic substrate (S-2366) inhibition assay. In kind it is biochemical. As to conditions: substrate S-2366, Table 1. Here is the method:
The effectiveness of compounds of the present invention as inhibitors of the coagulation factors XIa, VIIa, IXa, Xa, XIIa, plasma kallikrein or thrombin, can be determined using a relevant purified serine protease, respectively, and an appropriate synthetic substrate. The rate of hydrolysis of the chromogenic or fluorogenic substrate by the relevant serine protease was measured both in the absence and presence of compounds of the present invention. […] A decrease in the rate of absorbance or fluorescence change in the presence of inhibitor is indicative of enzyme inhibition. Such methods are known to one skilled in the art. The results of this assay are expressed as the inhibitory constant, Ki. […] JT Baker or Fisher Scientific). […] Values of Ki were determined by allowing the protease to react with the substrate in the presence of the inhibitor. Reactions were allowed to go for periods of 20-180 minutes (depending on the protease) and the velocities (rate of absorbance or fluorescence change versus time) were measured.
Regarding `O=C(NC1CCCNC1)C1c2cccc(N3CCC(N4CCCC4)CC3)c2CCN1C(=O)C=Cc1c(-n2cnnn2)ccc(Cl)c1F` (mixture of isomers) [Example 237], the Ki stood at 4620 nM.

`O=C(O)c1ccc(NC(=O)C2c3cccc(N4CCN(C(=O)OCc5ccccc5)CC4=O)c3CCN2C(=O)/C=C/c2c(-n3cnnn3)ccc(Cl)c2F)cc1` (racemic) [Example 52] returned a Ki of less than 5 nM. On the same count and under the same terms, to `CCOC(=O)c1ccc(NC(=O)C2c3cccc(N4CCOCC4)c3CCN2C(=O)/C=C/c2c(-n3cnnn3)ccc(Cl)c2F)cc1` (racemic) [Example 63] belongs 34.5 nM; to `CCNC(=O)c1ccc(NC(=O)C2c3cccc(N4CCNCC4)c3CCN2C(=O)/C=C/c2cc(Cl)c(F)cc2-n2cnnn2)cc1` (racemic) [Example 71], 492 nM. Still for that read-out and setting: as for `O=C(O)c1ccc(NC(=O)C2c3cccc(N4CCC(C(=O)N5CCCC5)CC4)c3CCN2C(=O)/C=C/c2c(-n3cnnn3)ccc(Cl)c2F)cc1` (racemic) [Example 131], the figure is less than 5 nM.

The same assay, now with this note: substrate S-2366, activity ranges, Table A.
For the compound `O=C(Nc1ccc2cn[nH]c2c1)C1c2cccc(N3CCOCC3=O)c2CCN1C(=O)/C=C/c1c(-n2cnnn2)ccc(Cl)c1F` (racemic) [Example 47], the Ki was less than 5 nM. The same measure, in the same setting: as for `CCOC(=O)c1ccc(NC(=O)C2c3cccc(N4CCOCC4=O)c3CCN2C(=O)/C=C/c2c(-n3cnnn3)ccc(Cl)c2F)cc1` (racemic) [Example 51], the figure is 5 to 10 nM; as for `CC(C)(C)OC(=O)c1ccc(NC(=O)C2c3cccc(N4CCN(C(=O)OC(C)(C)C)CC4=O)c3CCN2C(=O)/C=C/c2c(-n3cnnn3)ccc(Cl)c2F)cc1` (racemic) [Example 55], 100 to 500 nM; as for `CCOC(=O)c1ccc(NC(=O)C2c3cccc(N4CCN(C(=O)OC(C)(C)C)CC4=O)c3CCN2C(=O)/C=C/c2c(-n3cnnn3)ccc(Cl)c2F)cc1` (racemic) [Example 56], 5 to 10 nM.

Consider `COC(=O)Nc1ccc(NC(=O)C2c3cccc(N4CCOCC4)c3CCN2C(=O)/C=C/c2c(-n3cnnn3)ccc(Cl)c2F)cc1` (racemic) [Example 58], for which the Ki lay in the range of 100 to 500 nM. Same read-out and setting: as for `CC(C)(C)OC(=O)c1ccc(NC(=O)C2c3cccc(N4CCOCC4)c3CCN2C(=O)/C=C/c2c(-n3cnnn3)ccc(Cl)c2F)cc1` (racemic) [Example 59], the figure is 5 to 10 nM. `O=C(NC1CC1)c1ccc(NC(=O)C2c3cccc(N4CCNCC4)c3CCN2C(=O)/C=C/c2cc(Cl)c(F)cc2-n2cnnn2)cc1` (racemic) [Example 67]: the Ki lay in the range of 100 to 500 nM. The compound `O=C(NCCc1c[nH]cn1)c1ccc(NC(=O)C2c3cccc(N4CCNCC4)c3CCN2C(=O)/C=C/c2cc(Cl)c(F)cc2-n2cnnn2)cc1` (racemic) [Example 68] gave a Ki of 100 to 500 nM. On the same count and under the same terms, as for `O=C(Nc1ccccc1)c1ccc(NC(=O)C2c3cccc(N4CCNCC4)c3CCN2C(=O)/C=C/c2cc(Cl)c(F)cc2-n2cnnn2)cc1` (racemic) [Example 69], the figure is 100 to 500 nM. On the same count and under the same terms, to `CC(=O)Nc1ccc(NC(=O)c2ccc(NC(=O)C3c4cccc(N5CCNCC5)c4CCN3C(=O)/C=C/c3cc(Cl)c(F)cc3-n3cnnn3)cc2)cc1` (racemic) [Example 70] belongs 100 to 500 nM; to `CC(=O)NCCNC(=O)c1ccc(NC(=O)C2c3cccc(N4CCNCC4)c3CCN2C(=O)/C=C/c2cc(Cl)c(F)cc2-n2cnnn2)cc1` (racemic) [Example 72], 500 to 5000 nM; to `NC(=O)CCNC(=O)c1ccc(NC(=O)C2c3cccc(N4CCNCC4)c3CCN2C(=O)/C=C/c2cc(Cl)c(F)cc2-n2cnnn2)cc1` (racemic) [Example 73], 500 to 5000 nM.

The compound `COC(=O)CNC(=O)c1ccc(NC(=O)C2c3cccc(N4CCNCC4)c3CCN2C(=O)/C=C/c2cc(Cl)c(F)cc2-n2cnnn2)cc1` (racemic) [Example 74] showed a Ki of 100 to 500 nM.

In turn, `COc1cccc(NC(=O)c2ccc(NC(=O)C3c4cccc(N5CCNCC5)c4CCN3C(=O)/C=C/c3cc(Cl)c(F)cc3-n3cnnn3)cc2)c1` (racemic) [Example 75] registered a Ki of 100 to 500 nM. Regarding `CN(C)C(=O)c1ccc(NC(=O)C2c3cccc(N4CCNCC4)c3CCN2C(=O)/C=C/c2cc(Cl)c(F)cc2-n2cnnn2)cc1` (racemic) [Example 76], the Ki lay within 500 to 5000 nM. On the same count and under the same terms, as for `CNC(=O)c1ccc(NC(=O)C2c3cccc(N4CCNCC4)c3CCN2C(=O)/C=C/c2cc(Cl)c(F)cc2-n2cnnn2)cc1` (racemic) [Example 77], the figure is 100 to 500 nM; as for `O=C(Nc1ccc(F)cc1)C1c2cccc(N3CCC(N4CCCC4)CC3)c2CCN1C(=O)/C=C/c1c(-n2cnnn2)ccc(Cl)c1F` (racemic) [Example 82], less than 5 nM. On the same count and under the same terms, as for `CCOC(=O)c1ccc(NC(=O)C2c3cccc(N4CCC(N5CCCC5)CC4)c3CCN2C(=O)/C=C/c2c(-n3cnnn3)ccc(Cl)c2F)cc1` (racemic) [Example 83], the figure is less than 5 nM; as for `CC(C)(C)OC(=O)c1ccc(NC(=O)C2c3cccc(N4CCC(N5CCCC5)CC4)c3CCN2C(=O)/C=C/c2c(-n3cnnn3)ccc(Cl)c2F)cc1` (racemic) [Example 84], less than 5 nM; as for `N#Cc1ccc(NC(=O)C2c3cccc(N4CCC(N5CCCC5)CC4)c3CCN2C(=O)/C=C/c2c(-n3cnnn3)ccc(Cl)c2F)cc1` (racemic) [Example 85], less than 5 nM. The same measure, in the same setting: as for `COC(=O)Nc1ccc(NC(=O)C2c3cccc(N4CCC(N5CCCC5)CC4)c3CCN2C(=O)/C=C/c2c(-n3cnnn3)ccc(Cl)c2F)cc1` (racemic) [Example 89], the figure is less than 5 nM; as for `CN(C)C1CCN(c2cccc3c2CCN(C(=O)/C=C/c2c(-n4cnnn4)ccc(Cl)c2F)C3C(=O)Nc2ccc(C(=O)OC(C)(C)C)cc2)CC1` (racemic) [Example 91], 5 to 10 nM. As to `O=C(O)c1ccc(NC(=O)C2c3cccc(N4CCC(c5ccccc5)CC4)c3CCN2C(=O)/C=C/c2c(-n3cnnn3)ccc(Cl)c2F)cc1` (racemic) [Example 95], the Ki was less than 5 nM. As to `O=C(O)c1ccc(NC(=O)C2c3cccc(N4CCC(N5CCCC5=O)CC4)c3CCN2C(=O)/C=C/c2c(-n3cnnn3)ccc(Cl)c2F)cc1` (racemic) [Example 96], the Ki is less than 5 nM.

`NC1CCN(c2cccc3c2CCN(C(=O)/C=C/c2c(-n4cnnn4)ccc(Cl)c2F)C3C(=O)Nc2ccc(C(=O)O)cc2)CC1` (racemic) [Example 97]: the Ki was less than 5 nM. Same read-out and setting: to `CN(C)C(=O)C1CCN(c2cccc3c2CCN(C(=O)/C=C/c2c(-n4cnnn4)ccc(Cl)c2F)C3C(=O)Nc2ccc(C(=O)O)cc2)CC1` (racemic) [Example 100] belongs less than 5 nM. The same measure, in the same setting: as for `O=C(Nc1ccc(Cl)cc1)C1c2cccc(N3CCC(N4CCCC4)CC3)c2CCN1C(=O)/C=C/c1c(-n2cnnn2)ccc(Cl)c1F` (racemic) [Example 104], the figure is less than 5 nM; as for `CCCCOC(=O)c1ccc(NC(=O)C2c3cccc(N4CCC(N5CCCC5)CC4)c3CCN2C(=O)/C=C/c2c(-n3cnnn3)ccc(Cl)c2F)cc1` (racemic) [Example 105], less than 5 nM. The same measure, in the same setting: to `CCOC(=O)c1ccc(NC(=O)C2c3cccc(N4CCC5(CCN(C)C5=O)CC4)c3CCN2C(=O)/C=C/c2c(-n3cnnn3)ccc(Cl)c2F)cc1` (racemic) [Example 109] belongs 5 to 10 nM. For `O=C(O)c1ccc(NC(=O)C2c3cccc(N4CCC(N5CCCCC5)CC4)c3CCN2C(=O)/C=C/c2c(-n3cnnn3)ccc(Cl)c2F)cc1` (racemic) [Example 115], the Ki was less than 5 nM. On the same count and under the same terms, as for `CC(C)C1CCN(c2cccc3c2CCN(C(=O)/C=C/c2c(-n4cnnn4)ccc(Cl)c2F)C3C(=O)Nc2ccc(C(=O)O)cc2)CC1` (racemic) [Example 116], the figure is less than 5 nM; as for `CC1(C)CCN(c2cccc3c2CCN(C(=O)/C=C/c2c(-n4cnnn4)ccc(Cl)c2F)C3C(=O)Nc2ccc(C(=O)O)cc2)CC1` (racemic) [Example 117], less than 5 nM; as for `Cn1ncc2ccc(NC(=O)C3c4cccc(N5CCC(N6CCCC6)CC5)c4CCN3C(=O)/C=C/c3c(-n4cnnn4)ccc(Cl)c3F)cc21` (racemic) [Example 120], less than 5 nM. Same read-out and setting: to `O=C(O)c1ccc(NC(=O)C2c3cccc(N4CCC5(CCN(Cc6ccccc6)C5=O)CC4)c3CCN2C(=O)/C=C/c2c(-n3cnnn3)ccc(Cl)c2F)cc1` (racemic) [Example 121] belongs less than 5 nM; to `CC(C)OC(=O)c1ccc(NC(=O)C2c3cccc(N4CCC(N5CCCC5)CC4)c3CCN2C(=O)/C=C/c2c(-n3cnnn3)ccc(Cl)c2F)cc1` (racemic) [Example 122], less than 5 nM. The same measure, in the same setting: as for `CC(C)COC(=O)c1ccc(NC(=O)C2c3cccc(N4CCC(N5CCCC5)CC4)c3CCN2C(=O)/C=C/c2c(-n3cnnn3)ccc(Cl)c2F)cc1` (racemic) [Example 123], the figure is less than 5 nM. In the case of `O=C(OC1CCCC1)c1ccc(NC(=O)C2c3cccc(N4CCC(N5CCCC5)CC4)c3CCN2C(=O)/C=C/c2c(-n3cnnn3)ccc(Cl)c2F)cc1` (racemic) [Example 124], the Ki was less than 5 nM. On the same count and under the same terms, to `Cn1ncc2cc(NC(=O)C3c4cccc(N5CCC(N6CCCC6)CC5)c4CCN3C(=O)/C=C/c3c(-n4cnnn4)ccc(Cl)c3F)ccc21` (racemic) [Example 127] belongs less than 5 nM. On the same count and under the same terms, as for `O=C(O)c1ccc(NC(=O)C2c3cccc(N4CCC(N5CCCCC5=O)CC4)c3CCN2C(=O)/C=C/c2c(-n3cnnn3)ccc(Cl)c2F)cc1` (racemic) [Example 130], the figure is less than 5 nM; as for `CCOC(=O)c1ccc(NC(=O)C2c3cccc(N4CCC(C(=O)N5CCCC5)CC4)c3CCN2C(=O)/C=C/c2c(-n3cnnn3)ccc(Cl)c2F)cc1` (racemic) [Example 134], less than 5 nM. The same measure, in the same setting: as for `CCOC(=O)C1CCN(c2cccc3c2CCN(C(=O)/C=C/c2c(-n4cnnn4)ccc(Cl)c2F)C3C(=O)Nc2ccc(C(=O)O)cc2)CC1` (racemic) [Example 136], the figure is less than 5 nM.
